Test results as given in publication PMC9246773, “Assessing the Activity of Antimicrobial Peptides Against Common Marine Bacteria Located in Rotifer (Brachionus plicatilis) Cultures” (Probiotics and Antimicrobial Proteins, 2022).
No end group written: not given here.

Columns and labels:
[1] = tested on: Escherichia coli (ATCC 25922); assay type: cell-based; conditions: ATCC 25922, 48 h
Description: (§1) A range of bacterial species with the potential to be transferred to developing fish larvae as pathogens or probiotics were selected for use in the study (Table 2). Bacterial isolates were stored at −80 °C and thawed, and 25 µL of the isolates was spread onto marine salt agar (MSA) media. All isolates were incubated at 25 °C for 18 h to reach mid-log growth phase. All isolates were sub-cultured and identified using mass spectrometry (MALDI-TOF) using the BioTyper and MBT 8468 library (Bruker Pty Ltd). The isolate Tenacibaculum discolor was plated on Anacker and Oradal’s marine (AOM) media, incubated for 48 h and identified using the aforementioned method. Bacterial isolates were suspended in sterile saline (0.75% NaCl w/v) to 0.5 McFarland standard. […] The bacterial isolates T. discolor and Pseudoalteromonas sp. require marine salts to grow and were not added to MHB (0‰). The isolate T. discolor requires low nutrients to grow, therefore, a separate MHB (25‰) was prepared at a diluted ratio of 1 part MHB and 7 parts artificial seawater (25‰).
(§2) The protocol was followed to determine the minimum inhibitory concentration (MIC) of the selected peptides. Two MIC assays were performed, firstly to determine whether each peptide precipitated in MHB and thereby required acetic acid adjustments (supplementary materials) and secondly, to determine the antimicrobial activity of each peptide in artificial seawater (25‰). Peptide stock solutions (1.3 mg mL^−1) were made by diluting the peptides in sterile deionised water. MHB was made with deionised water to reach a concentration of approaching 0‰ and artificial sea salts (Sigma-Aldrich® S9883) to reach a salinity of 25‰.
(§3) A broth microdilution protocol was followed to test whether the AMPs precipitated in MHB. The isolates T. discolor and Pseudoalteromonas were excluded from this assay because they required marine salts for growth. The peptides HHC10 and HHC36 previously required acetic acid adjustments according to [63] and were not trialled in this assay. To test if peptides required acetic acid, each peptide was diluted 1:2 in acetic acid (0.02% acetic acid w/v, containing 0.4% BSA) solution. In a 96-well polypropylene microtitre plates (Costar® 3879), 100 µL of this peptide stock was added to the first well for each bacterial isolate tested and serially diluted 2-fold with acetic acid (0.01% acetic acid w/v, containing 0.2% BSA). From each well, 10 µL of each peptide concentration was added to the corresponding wells of a new 96-well microtitre plate. From each of the bacterial suspensions in MHB (0‰), 90 µL was added to each well. […] From each of the bacterial suspensions in MHB (0‰), 50 µL was added to each well. All peptide concentrations ranged from 0.125 - 65µg mL^-1 and the bacterial suspension in each well was approximately 5 × 10^5 CFU mL^-1. Antimicrobial peptides that have an MIC value two or more dilutions higher in the assay with no acetic acid, compared to the assay with acetic acid, require acetic acid adjustments. The 96-well plates were incubated at 25 °C and read at 24 and 48 hours. The MIC was visually determined using a Sensititre™ Vizion™ Digital MIC Viewing System (Thermo Scientific™), and the lowest AMP concentration that had no bacterial growth was recorded as the MIC after 48 hours. Each bacterium was trialled in duplicate.

[2] = tested on: Shewanella sp.; assay type: cell-based; conditions: 48 h
Description: as §1, §2, §3

[3] = tested on: Vibrio alginolyticus; assay type: cell-based; conditions: 48 h
Description: as §1, §2, §3

[4] = tested on: Vibrio harveyi (ATCC 35084); assay type: cell-based; conditions: ATCC 35084, 48 h
Description: as §1, §2, §3

[5] = tested on: Vibrio harveyi; assay type: cell-based; conditions: 48 h
Description: as §1, §2, §3

[6] = tested on: Vibrio rotiferianus; assay type: cell-based; conditions: 48 h
Description: as §1, §2, §3

[7] = tested on: Vibrio scophthalmi; assay type: cell-based; conditions: 48 h
Description: as §1, §2, §3

[8] = tested on: bacterial isolates; assay type: cell-based; conditions: 18 h
Description: as §1, §2
Once the acetic acid requirement for each peptide was determined (Table 3), the antimicrobial activity of each peptide was tested at a salinity of 0‰ and 25‰ for all bacterial isolates. A stock solution for peptides that required acetic acid was prepared by a 1:2 dilution in acetic acid (0.02% acetic acid w/v, containing 0.4% BSA) solution. In a 96-well polypropylene microtitre plates (Costar® 3879), 100 µL of this peptide stock was added to the first well for each bacterial isolate tested and serially diluted twofold with acetic acid (0.01% acetic acid w/v, containing 0.2% BSA). From each well, 10 µL of each peptide concentration was added to the corresponding wells of a new 96-well microtitre plate. From each of the bacterial suspensions (0‰), 90 µL was added to each well. […] Twofold serial dilutions were made with MHB (0‰). From each of the bacterial suspensions (0‰), 50 µL was added to each well. The same method was followed for testing peptides in MHB at 25‰. All peptide concentrations ranged from 0.125 to 65 µg mL^−1, and the bacterial suspension in each well was approximately 5 × 10^5 CFU mL^−1. […]

[9] = tested on: Escherichia coli (ATCC 25922); assay type: cell-based; conditions: ATCC 25922, 48 h; remark: listed apart in the source
Description: as §1, §2
(§4) Once the acetic acid requirement for each peptide was determined (Table 3), the antimicrobial activity of each peptide was tested at a salinity of 0‰ and 25‰ for all bacterial isolates. A stock solution for peptides that required acetic acid was prepared by a 1:2 dilution in acetic acid (0.02% acetic acid w/v, containing 0.4% BSA) solution. In a 96-well polypropylene microtitre plates (Costar® 3879), 100 µL of this peptide stock was added to the first well for each bacterial isolate tested and serially diluted twofold with acetic acid (0.01% acetic acid w/v, containing 0.2% BSA). From each well, 10 µL of each peptide concentration was added to the corresponding wells of a new 96-well microtitre plate. From each of the bacterial suspensions (0‰), 90 µL was added to each well. […] Twofold serial dilutions were made with MHB (0‰). From each of the bacterial suspensions (0‰), 50 µL was added to each well. The same method was followed for testing peptides in MHB at 25‰. All peptide concentrations ranged from 0.125 to 65 µg mL^−1, and the bacterial suspension in each well was approximately 5 × 10^5 CFU mL^−1. The different salinities were used to compare any differences in antimicrobial activity in 0‰ and 25‰ water. […] Each bacterium was trialled in duplicate.

[10] = tested on: Pseudoalteromonas sp.; assay type: cell-based; conditions: 48 h
Description: as §1, §2, §4

[11] = tested on: Shewanella sp.; assay type: cell-based; conditions: 48 h; remark: listed apart in the source
Description: as §1, §2, §4

[12] = tested on: Tenacibaculum discolor; assay type: cell-based; conditions: 48 h
Description: as §1, §2, §4

[13] = tested on: Vibrio alginolyticus; assay type: cell-based; conditions: 48 h; remark: listed apart in the source
Description: as §1, §2, §4

[14] = tested on: Vibrio harveyi (ATCC 35084); assay type: cell-based; conditions: ATCC 35084, 48 h; remark: listed apart in the source
Description: as §1, §2, §4

[15] = tested on: Vibrio harveyi; assay type: cell-based; conditions: 48 h; remark: listed apart in the source
Description: as §1, §2, §4

[16] = tested on: Vibrio rotiferianus; assay type: cell-based; conditions: 48 h; remark: listed apart in the source
Description: as §1, §2, §4

[17] = tested on: Vibrio scophthalmi; assay type: cell-based; conditions: 48 h; remark: listed apart in the source
Description: as §1, §2, §4

[18] = cited from earlier work
Description: A study by Haney determined the aggregation properties of the innate defence regulator (IDR) peptides 1018, 1002 and HH2 in different media such as salts and serum. These IDR peptides are synthetic analogues to natural host defence peptides (HDPs) found in organisms. […] Second-generation peptides are synthetically rearranged IDRs that are created to combat unwa ...

| Substance | MIC E. coli ATCC 25922, Acetic [1] [µg/mL] | MIC E. coli ATCC 25922, No acetic [1] [µg/mL] | MIC Shewanella sp., Acetic [2] [µg/mL] | MIC Shewanella sp., No acetic [2] [µg/mL] | MIC V. alginolyticus, Acetic [3] [µg/mL] | MIC V. alginolyticus, No acetic [3] [µg/mL] | MIC V. harveyi ATCC 35084, Acetic [4] [µg/mL] | MIC V. harveyi ATCC 35084, No acetic [4] [µg/mL] | MIC V. harveyi, Acetic [5] [µg/mL] | MIC V. harveyi, No acetic [5] [µg/mL] | MIC V. rotiferianus, Acetic [6] [µg/mL] | MIC V. rotiferianus, No acetic [6] [µg/mL] | MIC V. scophthalmi, Acetic [7] [µg/mL] | MIC V. scophthalmi, No acetic [7] [µg/mL] | MIC against the probiotic strains, low salt [8] [µg/mL] | MIC E. coli ATCC 25922, salinity 0‰ [9] [µg/mL] | MIC E. coli ATCC 25922, salinity 25‰ [9] [µg/mL] | MIC Pseudoalteromonas sp., salinity 25‰ [10] [µg/mL] | MIC Shewanella sp., salinity 0‰ [11] [µg/mL] | MIC Shewanella sp., salinity 25‰ [11] [µg/mL] | other results |
| --- | --- | --- | --- | --- | --- | --- | --- | --- | --- | --- | --- | --- | --- | --- | --- | --- | --- | --- | --- | --- | --- |
| RRWIVKVRIRRR-NH2 [Peptide 2008] | 2.03 | 4.06 | 0.13 | 0.51 | 0.51 | 1.02 | 1.02 | 1.02 | 1.02 | 1.02 | 0.25 | 1.02 | 0.13 | 0.25 | 0.13 to 0.25 | 4.06 | > 65 | 65 | 0.51 | 65 | MIC T. discolor, salinity 25‰ [12]: > 65 µg/mL; MIC V. alginolyticus, salinity 0‰ [13]: 0.13 µg/mL; MIC V. alginolyticus, salinity 25‰ [13]: 65 µg/mL; MIC V. harveyi ATCC 35084, salinity 0‰ [14]: 1.02 µg/mL; MIC V. harveyi ATCC 35084, salinity 25‰ [14]: > 65 µg/mL; MIC V. harveyi, salinity 0‰ [15]: 1.02 µg/mL; MIC V. harveyi, salinity 25‰ [15]: > 65 µg/mL; MIC V. rotiferianus, salinity 0‰ [16]: 0.25 µg/mL; MIC V. rotiferianus, salinity 25‰ [16]: 65 µg/mL; MIC V. scophthalmi, salinity 0‰ [17]: 0.25 µg/mL; MIC V. scophthalmi, salinity 25‰ [17]: 65 µg/mL; cytotoxicity [18]: caused cytotoxicity |
| KWRLLIRWRIQK [Peptide 2009] | 2.03 | 2.03 | 0.25 | 1.02 | 1.02 | 1.02 | 1.02 | 1.02 | 1.02 | 1.02 | 0.13 | 1.02 | 0.13 | 0.51 | 0.13 to 0.25 | 2.03 | > 65 | > 65 | 0.51 | > 65 | MIC T. discolor, salinity 25‰ [12]: > 65 µg/mL; MIC V. alginolyticus, salinity 0‰ [13]: 1.02 µg/mL; MIC V. alginolyticus, salinity 25‰ [13]: 65 µg/mL; MIC V. harveyi ATCC 35084, salinity 0‰ [14]: 1.02 µg/mL; MIC V. harveyi ATCC 35084, salinity 25‰ [14]: > 65 µg/mL; MIC V. harveyi, salinity 0‰ [15]: 1.02 µg/mL; MIC V. harveyi, salinity 25‰ [15]: > 65 µg/mL; MIC V. rotiferianus, salinity 0‰ [16]: 0.13 µg/mL; MIC V. rotiferianus, salinity 25‰ [16]: 32.5 µg/mL; MIC V. scophthalmi, salinity 0‰ [17]: < 0.13 µg/mL; MIC V. scophthalmi, salinity 25‰ [17]: 32.5 µg/mL; cytotoxicity [18]: caused cytotoxicity |
